From US10758607B2, “Respiratory syncytial virus having cleavage-resistant G protein and related materials and methods” (The Research Institute at Nationwide Children's Hospital, priority 2015, dated 2020)

Tests used:
[1] = system: RSV G protein cleavage in Vero cells; experiment: Cleavage of mutant G proteins transiently expressed in Vero cells (immunoblot); assay type: cell-based
Protocol: The G gene in the region of amino acid 210 was modified by deleting stretches of amino acids in this region (200-211, 204-213, 206-215, 208-217, or 209-213). […] Most of the mutants almost completely ablate cleavage. They all share amino acids 208-211. However, A206-210 and A206-215, both of which bring together amino acids that can also serve as a cathepsin L cleavage site. For FIG. 6B, the mutated G protein genes were transiently expressed in Vero cells. 24 h post-transfection cells were harvested, lysed and proteins were separated by SDS-PAGE, blotted and probed with mAb to the G protein.
To identify which amino acids are important for cleavage, individual amino acids in and around this region were changed to alanine. These mutant G proteins were transiently expressed in Vero cells and assessed by immunoblot (FIG. 6C). For FIG. 6C, the mutated G protein genes were transiently expressed in Vero cells. 24 hours post-transfection cells were harvested, lysed and proteins were separated by SDS-PAGE, blotted and probed with mAb to the G protein.
The strain A2 G protein plasmid was mutagenized using synthetic double strand gBlock DNA (Integrated DNA Technologies). Van91I (Thermo Fisher) and Xho I (New England Biolabs) were used to digest plasmid and gBlock. Doubly-digested plasmid was isolated by agarose gel electrophoresis. Digested gBlock and eluted plasmid DNAs were ligated with T4 DNA ligase (Promega, Madison, Wis.), and transformed into One Shot MachI-T1 chemically competent bacteria (Life Technologies). Plasmids were extracted using HiSpeed or Plasmid Plus Maxi kits (Qiagen).
Wild type G or frG proteins were expressed in HeLa or Vero cells following plasmid transfection with FuGene HD (Promega) or Lipofectamine LTX (Life Technologies), respectively, in medium containing 2% FBS. In frG experiments, medium was collected and concentrated using Ultracel-10 K centrifugal filters (EMD Millipore, Billerica, Mass.). For other transfection experiments, Vero cells were transfected using Lipofectamine 3000 (Life Technologies) in medium containing 10% FBS. For all transfection experiments, cells were lysed and protein quantified by BCA assay. Equivalent HeLa or Vero cell lysate protein and equivalent volumes of concentrated proteins from the medium were analyzed by immunoblotting.

[2] = system: G protein cleavage in RSV virions; experiment: Virion G protein of rgRSV-L208A grown in Vero cells (immunoblot); assay type: cell-based; details: purified through sucrose
Protocol: To test the infectivity of Vero-derived virus with an uncleavable G in HAE cultures, the L208A mutation was incorporated into the whole virus. rgRSV and rgRSV-L208A were grown in HeLa or Vero cells, purified by sucrose gradient, and their virion G proteins assessed by immunoblot (FIG. 7A). For FIG. 7A, the L208A mutant G protein gene was inserted into the full-length RSV genome cDNA, in place of the wt G protein. The mutant RSV was rescued and grown in HeLa or Vero cells, purified by centrifugation through a 35% sucrose cushion, and G protein assessed as before. […] The viruses were titrated on HeLa cells and equivalent infectious units used to inoculate HeLa or HAE cultures. […] For FIG. 7B, virus was titrated on HeLa cells and equivalent infectious units were used to inoculate HAE and HeLa in parallel. Virus-infected (green) cells were counted at 24 (HeLa) or 48 (HAE) hpi.
The full-length RSV cDNA construct, RW30 (Kwilas et al., J Virol (2010) 84:7770-7781), was used as the backbone for a modification of the G protein gene at amino acid 208 from a […] to an alanine. RW30 was digested with restriction enzymes EcoICRI and SacII (Thermo Fisher Scientific Waltham, Mass.) to remove the G gene, and the remaining vector was isolated from an 0.5% agarose gel following electrophoresis and eluted from the gel fragment with the Qiaex II gel elution kit (Qiagen, Valencia, Calif.). […]

Substance: L208: RSV strain A2 G protein with alanine substitution for L208
- efficiency at inhibiting cleavage (rank among alanine substitutions) [1]: most efficient
- resistance to cleavage of alanine substitution G protein mutants ([1]; 24 hours post-transfection): partially to nearly completely resistant to cleavage
- virion G protein cleavage [2]: prevention of G protein cleavage
